Source: the NIST ThermoML archive (doi:10.1021/acs.jced.8b00554)

Test: xn = mol fraction of the nth substance listed
Settings: Liquid, Vibrating tube method

CCCCCCCCC [nonane] + CCCO
Settings	mass density [kg/m3]
333.15 K, 6020 kPa, x2 = 0.1231	692.22
333.15 K, 6020 kPa, x2 = 0.3229	700.03
333.15 K, 7000 kPa, x2 = 0.2315	697.33
333.15 K, 7010 kPa, x2 = 0.1231	693.22
333.15 K, 7010 kPa, x2 = 0.3229	701.03
333.15 K, 7010 kPa, x2 = 0.4272	706.53
333.15 K, 7010 kPa, x2 = 0.7021	728.53
333.15 K, 7010 kPa, x2 = 0.8941	754.12
333.15 K, 8000 kPa, x2 = 0.3229	702.03
333.15 K, 8010 kPa, x2 = 0.1231	694.22
333.15 K, 8010 kPa, x2 = 0.7021	729.53
333.15 K, 8010 kPa, x2 = 0.8941	755.09
333.15 K, 8020 kPa, x2 = 0.2315	698.33
333.15 K, 8020 kPa, x2 = 0.4272	707.53
333.15 K, 9010 kPa, x2 = 0.2315	699.32
333.15 K, 9010 kPa, x2 = 0.3229	703.05
333.15 K, 9010 kPa, x2 = 0.4272	708.53
333.15 K, 9010 kPa, x2 = 0.7021	730.52
333.15 K, 9010 kPa, x2 = 0.8941	756.05
333.15 K, 9020 kPa, x2 = 0.1231	695.19
333.15 K, 10010 kPa, x2 = 0.1231	696.17
333.15 K, 10010 kPa, x2 = 0.2315	700.3
333.15 K, 10010 kPa, x2 = 0.3229	704.04
333.15 K, 10010 kPa, x2 = 0.4272	709.54
333.15 K, 10020 kPa, x2 = 0.7021	731.49
333.15 K, 10020 kPa, x2 = 0.8941	757
333.15 K, 11010 kPa, x2 = 0.1231	697.14
333.15 K, 11010 kPa, x2 = 0.2315	701.27
333.15 K, 11010 kPa, x2 = 0.3229	705.01
333.15 K, 11010 kPa, x2 = 0.4272	710.52
333.15 K, 11010 kPa, x2 = 0.7021	732.46
333.15 K, 11010 kPa, x2 = 0.8941	757.95
333.15 K, 12000 kPa, x2 = 0.1231	698.08
333.15 K, 12000 kPa, x2 = 0.2315	702.25
333.15 K, 12000 kPa, x2 = 0.3229	705.98
333.15 K, 12010 kPa, x2 = 0.4272	711.48
333.15 K, 12010 kPa, x2 = 0.8941	758.88
333.15 K, 12020 kPa, x2 = 0.7021	733.42
333.15 K, 13000 kPa, x2 = 0.3229	706.94
333.15 K, 13000 kPa, x2 = 0.8941	759.79
333.15 K, 13010 kPa, x2 = 0.1231	699.03
333.15 K, 13010 kPa, x2 = 0.4272	712.44
333.15 K, 13010 kPa, x2 = 0.7021	734.37
333.15 K, 13020 kPa, x2 = 0.2315	703.18
333.15 K, 14000 kPa, x2 = 0.3229	707.87
333.15 K, 14010 kPa, x2 = 0.1231	699.96
333.15 K, 14010 kPa, x2 = 0.2315	704.11
333.15 K, 14010 kPa, x2 = 0.4272	713.39
333.15 K, 14010 kPa, x2 = 0.7021	735.32
333.15 K, 14010 kPa, x2 = 0.8941	760.71
333.15 K, 15000 kPa, x2 = 0.2315	705.02
333.15 K, 15010 kPa, x2 = 0.1231	700.86
333.15 K, 15010 kPa, x2 = 0.3229	708.79
333.15 K, 15010 kPa, x2 = 0.4272	714.3
333.15 K, 15010 kPa, x2 = 0.7021	736.23
333.15 K, 15010 kPa, x2 = 0.8941	761.6
333.15 K, 16000 kPa, x2 = 0.4272	715.23
333.15 K, 16000 kPa, x2 = 0.8941	762.49
333.15 K, 16010 kPa, x2 = 0.1231	701.75
333.15 K, 16010 kPa, x2 = 0.2315	705.94
333.15 K, 16010 kPa, x2 = 0.3229	709.71
333.15 K, 16020 kPa, x2 = 0.7021	737.15
333.15 K, 17000 kPa, x2 = 0.3229	710.61
333.15 K, 17010 kPa, x2 = 0.7021	738.03
333.15 K, 17010 kPa, x2 = 0.8941	763.38
333.15 K, 17020 kPa, x2 = 0.1231	702.63
333.15 K, 17020 kPa, x2 = 0.2315	706.85
333.15 K, 17020 kPa, x2 = 0.4272	716.11
333.15 K, 18000 kPa, x2 = 0.3229	711.48
333.15 K, 18000 kPa, x2 = 0.4272	717
333.15 K, 18000 kPa, x2 = 0.8941	764.23
333.15 K, 18010 kPa, x2 = 0.1231	703.52
333.15 K, 18010 kPa, x2 = 0.2315	707.71
333.15 K, 18010 kPa, x2 = 0.7021	738.91
333.15 K, 19000 kPa, x2 = 0.1231	704.35
333.15 K, 19000 kPa, x2 = 0.2315	708.54
333.15 K, 19000 kPa, x2 = 0.8941	765.08
333.15 K, 19010 kPa, x2 = 0.3229	712.34
333.15 K, 19010 kPa, x2 = 0.4272	717.85
333.15 K, 19010 kPa, x2 = 0.7021	739.77
333.15 K, 20000 kPa, x2 = 0.2315	709.37
333.15 K, 20000 kPa, x2 = 0.8941	765.89
333.15 K, 20010 kPa, x2 = 0.7021	740.63
333.15 K, 20020 kPa, x2 = 0.1231	705.18
333.15 K, 20020 kPa, x2 = 0.3229	713.17
333.15 K, 20020 kPa, x2 = 0.4272	718.7
343.15 K, 100 kPa, x2 = 0.1231	677.91
343.15 K, 100 kPa, x2 = 0.2315	680.7
343.15 K, 100 kPa, x2 = 0.3229	683.88
343.15 K, 100 kPa, x2 = 0.4272	688.89
343.15 K, 100 kPa, x2 = 0.7021	710.15
343.15 K, 100 kPa, x2 = 0.8941	735.96
343.15 K, 1000 kPa, x2 = 0.2315	681.31
